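Dose response: 5 concentrations. Exposure: 48 h. Format: 96-well plates. Endpoint: linear interpolation; highest concentration if not reached. GI50 = concentration required for 50% inhibition of growth. TGI: total growth inhibition.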 Bounds are passed on as bounds.

Test systems include RXF 393 renal; SW-620 colon; COLO 205 colon; KM12 colon; OVCAR-5 ovarian; NCI/ADR-RES ovarian; SF-268 CNS; A549 NSCLC; SF-295 CNS; HOP-92 NSCLC.
Holding throughout (experiment): NCI tumour cell line growth inhibition, 48 h

On to `CCOC(=O)C1(CC(=O)O)CCCC1=O` (stereo not given), for which the TGI in the assay with RXF 393 renal, in the assay on SW-620 colon, in the assay with COLO 205 colon, in the assay on KM12 colon, with OVCAR-5 ovarian and in the assay with NCI/ADR-RES ovarian was more than 100 µM throughout. The TGI in the assay with SF-268 CNS, in the assay on A549 NSCLC, in the assay with SF-295 CNS and in the assay on HOP-92 NSCLC was more than 100 µM throughout.
With `Oc1ccc(NC(=S)Nc2ccccc2)cc1`, the GI50 in the assay with RXF 393 renal, in the assay with SW-620 colon, with COLO 205 colon, in the assay on KM12 colon, in the assay with OVCAR-5 ovarian and in the assay on NCI/ADR-RES ovarian was more than 100 µM each time. For the same molecule, the GI50 was more than 100 µM with SF-268 CNS, more than 100 µM with A549 NSCLC, more than 100 µM with SF-295 CNS and 51.8 µM in the assay with HOP-92 NSCLC. The TGI in the assay with RXF 393 renal, in the assay with SW-620 colon, with COLO 205 colon, in the assay with KM12 colon, in the assay on OVCAR-5 ovarian and in the assay on NCI/ADR-RES ovarian was more than 100 µM each time. For the same molecule, the TGI with SF-268 CNS, with A549 NSCLC, in the assay with SF-295 CNS and in the assay on HOP-92 NSCLC was more than 100 µM in each case.
As for `C=CC(=O)N[C@@H]1CN(c2nc(Nc3cn(C)nc3OC)c3ncn(C)c3n2)C[C@H]1F`, the GI50 is 34.1 µM in the assay on RXF 393 renal; 26.9 µM with SW-620 colon; 17.6 µM in the assay with COLO 205 colon; 33.6 µM in the assay on KM12 colon; 11.5 µM in the assay with OVCAR-5 ovarian; more than 100 µM in the assay on NCI/ADR-RES ovarian. Also, the GI50 was 21.5 µM in the assay with SF-268 CNS, 24.5 µM in the assay on A549 NSCLC, 38.9 µM with SF-295 CNS and 17.3 µM with HOP-92 NSCLC. Further, the TGI was more than 84.5 µM with RXF 393 renal; more than 100 µM with SW-620 colon; 48.6 µM in the assay with COLO 205 colon; more than 100 µM in the assay on KM12 colon; more than 100 µM with OVCAR-5 ovarian; more than 100 µM in the assay on NCI/ADR-RES ovarian. In addition, the TGI with SF-268 CNS was more than 100 µM; in the assay on A549 NSCLC, more than 100 µM; in the assay on SF-295 CNS, more than 100 µM; in the assay with HOP-92 NSCLC, 70.7 µM.
For the molecule `O=c1cc(-c2ccc(Cl)cc2)[nH]c2ccccc12`, the GI50 in the assay with RXF 393 renal was 45.9 µM; with SW-620 colon, 27.7 µM; with COLO 205 colon it was 35.1 µM; in the assay on KM12 colon it was 27.2 µM; with OVCAR-5 ovarian, more than 100 µM; in the assay on NCI/ADR-RES ovarian, 27.1 µM. In addition, the GI50 in the assay on SF-268 CNS is 83.3 µM; with A549 NSCLC, more than 100 µM; in the assay on SF-295 CNS it was 41.2 µM; in the assay with HOP-92 NSCLC it was 64.2 µM. Moreover, the TGI in the assay on RXF 393 renal, in the assay with SW-620 colon, in the assay with COLO 205 colon, in the assay with KM12 colon, in the assay on OVCAR-5 ovarian and with NCI/ADR-RES ovarian was more than 100 µM each time. Besides, the TGI with SF-268 CNS, in the assay with A549 NSCLC, in the assay with SF-295 CNS and in the assay with HOP-92 NSCLC was more than 100 µM each time.
In the case of `Oc1ccc2ccccc2c1CCc1c(O)ccc2ccccc12`, the TGI in the assay with RXF 393 renal was 27.5 µM; with SW-620 colon, 28.4 µM; in the assay on COLO 205 colon, 29.1 µM; in the assay with KM12 colon, 24.8 µM; in the assay with OVCAR-5 ovarian, 27.2 µM; with NCI/ADR-RES ovarian it was 31.1 µM. Besides, the TGI worked out at 25.2 µM in the assay on SF-268 CNS, 25.3 µM in the assay with A549 NSCLC, 28.7 µM in the assay with SF-295 CNS and 24.7 µM in the assay with HOP-92 NSCLC.
Turning to `CCN(C(=O)N1CCN(c2cc3c(cc2F)c(=O)c(C(=O)O)cn3C2CC2)CC1)c1nc(-c2ccccc2)cs1`, the GI50 in the assay with RXF 393 renal was 2.52 µM; with SW-620 colon, 3.93 µM; with COLO 205 colon it was 2.58 µM; in the assay with KM12 colon it was 2.94 µM; in the assay on OVCAR-5 ovarian it was 3.27 µM; in the assay on NCI/ADR-RES ovarian, 2.88 µM. Moreover, the GI50 was 3.29 µM with SF-268 CNS, 3.11 µM with A549 NSCLC, 2.24 µM in the assay on SF-295 CNS and 2.17 µM in the assay with HOP-92 NSCLC. Also, the TGI is 8.88 µM with RXF 393 renal; more than 100 µM in the assay with SW-620 colon; 7.1 µM with COLO 205 colon; more than 100 µM with KM12 colon; more than 100 µM in the assay on OVCAR-5 ovarian; more than 100 µM in the assay with NCI/ADR-RES ovarian. The TGI in the assay with SF-268 CNS was more than 100 µM; in the assay on A549 NSCLC, more than 100 µM; in the assay with SF-295 CNS, 8.51 µM; in the assay on HOP-92 NSCLC it was 7.53 µM.
As to `O=C(Nc1ccc(OS(=O)(=O)c2ccc(F)cc2)cc1)C12CC3CC(CC(C3)C1)C2`, the GI50 in the assay with RXF 393 renal was 3.15 µM; in the assay on SW-620 colon it was 0.54 µM; with COLO 205 colon it was 0.434 µM; in the assay with KM12 colon it was 1.15 µM; with OVCAR-5 ovarian, 26.1 µM; in the assay on NCI/ADR-RES ovarian it was 3.15 µM. The GI50 is 19.8 µM with SF-268 CNS, 5.25 µM with A549 NSCLC, 1.57 µM in the assay on SF-295 CNS and 3.45 µM in the assay with HOP-92 NSCLC. The TGI with RXF 393 renal was 22.5 µM; in the assay on SW-620 colon it was more than 100 µM; in the assay on COLO 205 colon it was more than 100 µM; in the assay on KM12 colon it was more than 100 µM; in the assay with OVCAR-5 ovarian, more than 100 µM; in the assay with NCI/ADR-RES ovarian, more than 100 µM. Also, the TGI in the assay with SF-268 CNS was more than 100 µM; with A549 NSCLC, more than 100 µM; with SF-295 CNS, 29.1 µM; in the assay with HOP-92 NSCLC it was 18.1 µM.
For `COc1ccccc1-n1cnc(N)c1C(=O)c1cc(OC)c(OC)c(OC)c1`, the GI50 in the assay on RXF 393 renal was 2.19 µM; in the assay on SW-620 colon, 3.25 µM; in the assay on COLO 205 colon, 4.5 µM; with KM12 colon it was 3.22 µM; in the assay with OVCAR-5 ovarian, 62.5 µM; in the assay with NCI/ADR-RES ovarian, 13.1 µM. The GI50 in the assay with SF-268 CNS was 4.44 µM; with A549 NSCLC, 4.42 µM; in the assay on SF-295 CNS, 2.73 µM; with HOP-92 NSCLC, 43.8 µM. The TGI with RXF 393 renal was 64.5 µM; with SW-620 colon, more than 100 µM; in the assay on COLO 205 colon, 40.3 µM; in the assay on KM12 colon, more than 100 µM; with OVCAR-5 ovarian, more than 100 µM; with NCI/ADR-RES ovarian, more than 100 µM. The TGI with SF-268 CNS, in the assay on A549 NSCLC, in the assay on SF-295 CNS and in the assay with HOP-92 NSCLC was more than 100 µM in each case.
